The subject of one test is Human immunodeficiency virus 1. As to the kind of experiment: Inhibitory activity against human immunodeficiency virus type 1. Format: functional, organism-based.
As to `CCc1c(Sc2cc(C)cc(C)c2)n(COCc2ccco2)c(=O)[nH]c1=O`, the IC50 – broadly, the concentration at which inhibition is half-maximal – was < 100 nM. Turning to `CCc1c(Sc2ccccc2)n(COCc2ccco2)c(=O)[nH]c1=O`, the IC50 is < 100 nM. On the same count and under the same terms, next, `CCc1c(Sc2cc(C)cc(C)c2)n(COCc2ccccc2)c(=O)[nH]c1=O`: < 100 nM. The same measure, in the same setting: then `CCc1c(Sc2ccccc2)n(COCc2ccccc2)c(=O)[nH]c1=O`, with < 100 nM; and `CCc1c(Sc2ccccc2)n(COCc2cc3ccccc3o2)c(=O)[nH]c1=O`, with < 100 nM; and `CCc1c(Sc2cc(C)cc(C)c2)n(COCc2cccs2)c(=O)[nH]c1=O`, with < 100 nM. The same measure, in the same setting: then `CCc1c(Sc2ccccc2)n(COCc2cccs2)c(=O)[nH]c1=O`, with < 100 nM.

In the next test the test system is Human immunodeficiency virus 1. As to the kind of experiment: Inhibitory activity against human immunodeficiency virus type 1 (inactive>0.1). It is filed as functional, organism-based.
Regarding `Cc1c(Sc2ccccc2)n(COCc2ccc([N+](=O)[O-])s2)c(=O)[nH]c1=O`, the concentration for half-maximal inhibition (IC50) entry is “Inactive”. Still for that read-out and setting: then `Cc1c(SC2CCCCC2)n(COCNC(=O)c2ccccc2)c(=O)[nH]c1=O`, with “Inactive”; and `Cc1c(SC2CCCCC2)n(COCN(c2ccccc2)c2ccccc2)c(=O)[nH]c1=O`, with “Inactive”; and `Cc1c(SC2CCCCC2)n(COCN(C(=O)c2ccccc2)C(=O)c2ccccc2)c(=O)[nH]c1=O`, with “Inactive”. The same measure, in the same setting: then `Cc1c(SC2CCCCC2)n(COCNc2ccccc2)c(=O)[nH]c1=O`, with “Inactive”; and `Cc1c(SC2CCCCC2)n(COCNC(=O)CCCl)c(=O)[nH]c1=O`, with “Inactive”; and `Cc1c(SC2CCCCC2)n(COCSc2ccccc2)c(=O)[nH]c1=O`, with “Inactive”.

Regarding `CCc1c(Sc2ccccc2)n(COCc2ccc([N+](=O)[O-])s2)c(=O)[nH]c1=O`, the 50% inhibitory concentration (IC50) entry is given as “Inactive”. The same measure, in the same setting: next, `Cc1c(SC2CCCCC2)n(COCN(CC#N)CC#N)c(=O)[nH]c1=O`: “Inactive”; `Cc1c(SC2CCCCN2)n(COCNc2ccccc2)c(=O)[nH]c1=O` (stereo not drawn): “Inactive”. Same read-out and setting: then `Cc1c(SC2CCCCC2)n(COCNC(=O)CNCP(=O)(O)O)c(=O)[nH]c1=O`, with “Inactive”.

`Cc1c(Sc2ccccc2)n(COCc2ccco2)c(=O)[nH]c1=O`: the IC50 entry was “Inactive”.

Turning to `Cc1c(Sc2ccccc2)n(COCC2CCCCC2)c(=O)[nH]c1=O`, the IC50 result was “Inactive”. Still for that read-out and setting: then `Cc1c(SC2CCCCC2)n(COCN2CCOCC2)c(=O)[nH]c1=O`, with “Inactive”; and `Cc1c(Sc2ccccc2)n(COCc2cccnc2)c(=O)[nH]c1=O`, with “Inactive”. Still for that read-out and setting: then `Cc1c(SC2CCCCN2)n(COCSc2ccncc2)c(=O)[nH]c1=O` (stereo not drawn), with “Inactive”; and `Cc1c(SC2CCCCC2)n(COCBr)c(=O)[nH]c1=O`, with “Inactive”; and `Cc1c(SC2CCCCC2)n(COCN2CCNCC2)c(=O)[nH]c1=O`, with “Inactive”. The same measure, in the same setting: next, `Cc1c(SC2CCCCN2)n(COCSc2ccccc2)c(=O)[nH]c1=O` (stereo not drawn): “Inactive”. Turning to `Cc1c(Sc2ccccc2)n(COCc2ccccc2)c(=O)[nH]c1=O`, the half-inhibitory concentration (IC50) result was “Inactive”. Still for that read-out and setting: then `Cc1c(SC2CCCCC2)n(COCN)c(=O)[nH]c1=O`, with “Inactive”. Still for that read-out and setting: then `Cc1c(SC2CCCCC2)n(COCNC(=O)CP(=O)(O)O)c(=O)[nH]c1=O`, with “Inactive”; and `Cc1c(Sc2ccccc2)n(COCc2cc3ccccc3o2)c(=O)[nH]c1=O`, with “Inactive”; and `Cc1c(SC2CCCCC2)n(COCI)c(=O)[nH]c1=O`, with “Inactive”.

Regarding `Cc1c(Sc2ccccc2)n(COCc2cccs2)c(=O)[nH]c1=O`, the IC50 entry is given as “Inactive”. Still for that read-out and setting: next, `Cc1c(SC2CCCCC2)n(COCSc2ccncc2)c(=O)[nH]c1=O`: “Inactive”.

The values are drawn from ChEMBL document CHEMBL1144258, “Topochemical model for prediction of anti-HIV activity of HEPT analogs” (Bioorg Med Chem Lett, 2005).
